Measurements taken from publication PMC3025356, “Mechanism of the Ca^2+-Dependent Interaction between S100A4 and Tail Fragments of Nonmuscle Myosin Heavy Chain IIA” (Journal of Molecular Biology, 2011).
Read-outs that look alike come from different tables or passages of the source.

Key:
Δ10-S100A4 = target: T1, Δ10-S100A4 (Homo sapiens, UniProt P26447); test: NMR ^1H,^15N HSQC titration of Δ10-S100A4 with myosin peptides; assay type: binding
T1 construct: truncated Δ10-S100A4, which lacks 10 C-terminal residues; made in house; host or cells: Escherichia coli (M9 minimal medium, 15N labelling)

[1] = Stopped-flow tyrosine fluorescence, Ca^2+ dissociation from S100A4 constructs; assay type: binding
Procedure: (§1) Stopped-flow measurements were carried out using an SX18-MV apparatus (Applied Photophysics Ltd., Leatherhead, UK) with a dead time of 1.5 ms.[40] Records were generally captured on a logarithmic time base. Absorption (turbidity) measurements were usually recorded using a 10-mm pathlength, while fluorescence was recorded with a 2-mm pathlength for excitation and emission. The stated concentrations of components refer to the reaction chamber after mixing, unless otherwise indicated. Tyrosine fluorescence was excited at 280 nm, and the emission was collected through a UG11 bandpass filter plus a 305-nm longpass filter.[18] Fluorescein fluorescence was excited at 480 nm, and the emission was detected through a 515-nm longpass filter. Quin-2 fluorescence was measured by excitation at 336 nm, and emission was collected with a 455-nm longpass filter. For simultaneous recording of light scatter, a second channel was monitored through a UG11 filter. Rate constants were obtained by fitting to single-exponential or double-exponential functions using Kaleidagraph (Synergy Software) or Applied Photophysics Pro-Data software. Modeling of kinetic schemes was performed using Berkeley Madonna software.
Dissociation of Ca2+ from wild type S100A4 (black), Y19F mutant (blue) and Y75F mutant (red) monitored by tyrosine fluorescence. 13 M of each S100A4 construct plus 100 µM Ca2+ was mixed with 200 µM EGTA (reaction chamber concentrations) and the tyrosine fluorescence monitored. The buffer was 20 mM NaCl, 10 mM HEPES, 2 mM DTT at pH 7.5 and 20 °C. Fits to a single exponential function yielded rate constants of 20 s-1, 113 s-1 and 45 s-1 for wild-type, Y19F mutant and Y75F mutant respectively. (d) Dissociation of Ca2+ from wild type S100A4 (black), E33Q mutant (blue) and D63N mutant (red) monitored by tyrosine fluorescence. 13 M of each S100A4 construct plus 15 M Ca2+ was mixed with 200 M EGTA (reaction chamber concentrations) and the tyrosine fluorescence monitored. Fits to a single exponential function yielded rate constants of 22 s-1 and 49 s-1 for wild-type and E33Q construct respectively, while that […]
The records for the mutants were vertically offset for clarity in both […]

[2] = Stopped-flow Quin-2 fluorescence, Ca^2+ dissociation from / binding to S100A4 constructs (no target); conditions: single exponential fit, no target
Source text: In order to increase the signal-to-noise ratio of the Ca^2+ dissociation transients, we used Quin-2 as combined fluorescent indicator and high-affinity chelator.[19,20] These measurements confirmed that Ca^2+ dissociated from wild-type protein with a rate constant of 16 s^− 1 (Fig. 3a; cf. 20 s^− 1 for the tyrosine signal). Given the poor signal-to-noise ratio of the tyrosine signal, the difference is barely significant but may reflect the fact that the Quin-2 signal represents at least a two-step sequential reaction (Ca^2+ dissociation from S100AS4, followed by rapid binding to Quin-2).
Fig. 3 (a) Dissociation of Ca^2+ from wild-type S100A4 (black), E33Q mutant (blue), and D63N mutant (red), as monitored by Quin-2 fluorescence. […] The records for the mutants were vertically offset for clarity. (b) Ca^2+ binding to S100A4 as determined from the amplitude of the resolved transient (k ≈ 20 s^− 1) when 6.5 μM S100A4 was preincubated with various added [Ca^2+] and then mixed with 100 μM Quin-2. The amplitude was converted into a bound concentration from an independent calibration using the same Quin-2 solution and known free [Ca^2+]. […] While either model could account for the data, the measured stoichiometry from ITC (Table 1) favors the cooperative model.
as §1

[3] = Isothermal titration calorimetry of Ca^2+ binding to S100A4 constructs
Procedure: Fig. 2 ITC records for Ca^2+ binding to S100A4 constructs: (a) 75 μM wild type at 30 °C; (b) 75 μM wild type at 10 °C; (c) 75 μM E33Q construct at 30 °C; (d) 300 μM D63N construct at 30 °C. For mutant constructs data at 10 °C, see Fig. S1. All preparations were dialysed against the same buffer of 20 mM NaCl, 10 mM Hepes, and 2 mM DTT (pH 7.5).
ITC data were collected using a VP-ITC microcalorimeter (MicroCal Ltd., Northampton, MA) and analysed by fitting to a single-site binding equation or a two-site binding equation using MicroCal Origin software.

[4] = 13 μM S100A4 + 100 μM Ca^2+ mixed with 200 μM EGTA, 20 mM NaCl, 10 mM Hepes, 2 mM DTT, pH 7.5, 20 °C
[5] = 10 °C and 30 °C, read-out: Kd for Ca^2+
[6] = 10 °C, 75 μM protein (D63N 300 μM), 20 mM NaCl, 10 mM Hepes, 2 mM DTT, pH 7.5
[7] = 30 °C, 75 μM protein (D63N 300 μM), 20 mM NaCl, 10 mM Hepes, 2 mM DTT, pH 7.5
[8] = first site, Ca^2+ binding, 30 °C, 75 μM protein (D63N 300 μM), 20 mM NaCl, 10 mM Hepes, 2 mM DTT, pH 7.5, read-out: K1d
[9] = first site, 10 °C, wild type and E33Q cooperative, read-out: K1d

T1 sequence (P26447 1-91 limits assumed, stated change not applied): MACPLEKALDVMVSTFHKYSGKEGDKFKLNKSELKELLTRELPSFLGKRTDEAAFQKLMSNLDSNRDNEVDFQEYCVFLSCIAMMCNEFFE

| Ca^2+ dissociation rate constant (Quin-2) [2] | Kd [3, 5] | n1 (Ca^2+ per monomer) [3, 6] | n1 (Ca^2+ per monomer) [3, 7] | Kd [3, 8] | Kd [3, 9] | Substance | Ca^2+ dissociation rate constant (tyrosine) [1, 4] | also measured |
| --- | --- | --- | --- | --- | --- | --- | --- | --- |
|  |  |  |  |  |  | Δ10-S100A4: truncated S100A4, lacks 10 C-terminal residues |  | interaction in the absence of Ca^2+ (Δ10-S100A4; absence of Ca^2+): No interaction was observed |
|  |  |  |  |  |  | Y75F: S100A4 mutant, tyrosine 75 to phenylalanine | 45 s^− 1 |  |
| 500 s^− 1 | 65 to 70 µM | 0.44 ± 0.01 Ca^2+ per monomer | 0.54 ± 0.01 Ca^2+ per monomer | 68 ± 1 µM | 65 ± 3 µM | D63N: S100A4 mutant compromised in the EF2 Ca^2+ binding loop |  | reduction in Ca^2+ affinity ([3]; compromised EF2 site, as suggested by ITC): 30 -fold |
|  |  |  |  |  |  | M15^C: myosin peptide G1924-G1938, acetylated N-terminus, amidated C-terminus (Ac-GDLPFVVPRRMARKG-NH2) |  | NMR exchange regime (Δ10-S100A4; 0.2 mM Δ10-S100A4, Ca^2+, 35 °C): fast exchange; affinity by NMR (Δ10-S100A4; 0.2 mM Δ10-S100A4, up to 9-fold molar excess of peptide): too low to be measured by NMR |
|  |  |  |  |  |  | Y19F: S100A4 mutant, tyrosine 19 to phenylalanine | 113 s^− 1 |  |
| 35 s^− 1 | 1 to 10 µM | 0.96 ± 0.09 Ca^2+ per monomer | 0.33 ± 0.03 Ca^2+ per monomer | 10.9 ± 1.9 µM | ~1 µM | E33Q: S100A4 mutant compromised in the EF1 Ca^2+ binding loop |  | Ca^2+ dissociation rate constant (tyrosine) ([1]; 13 μM S100A4 + 15 μM Ca^2+ mixed with 200 μM EGTA): 49 s^− 1 |
